*1 amine or outer side, *2 acyl side, *3 side chain or, on linkers, in order; H or OH if unused. Where a SMILES comes first, the peptide text is derived from it. [ ]: non-standard residue; d: D form. X1 = O=C1c2ccccc2[C@@](O)(CN(Cc2ccccc2)[*:1])N1CC(=O)[*:2]; NMeL = CN[C@@H](CC(C)C)C(=O)O
How the values were obtained:
Type in all cases: cell-based, human
MDA-MB-231 cells = conditions: 48 h
Text: The antitumor activity of the prepared cyclic peptides against human hepatocellular carcinoma cells (HepG-2), human cervical cancer cell lines (HeLa) and human breast cancer cells (MDA-MB-231) was examined by MMT assay, and the mouse fibroblast L929 cells were used as the model cells to evaluate the toxicity of cyclopeptides to normal cell lines. Due to the absence of an authentic standard, taxol was chosen as a control because it is a widely used chemotherapeutic drug for the treatment of various cancers, including liver cancer.
Samples were dissolved in DMSO and diluted into different concentrations ([…], 18.75, 25, 37.5, 50, 75, 100 and 250 μM) and stored at 4 °C. Cells in the logarithmic growth phase were digested with trypsin and then seeded in 96-well plates at a density of 2 × 10^4 cells/well in 100 μL of culture medium. The cells were treated with different concentrations of the tested compound, and a blank control group without the drug was also set up. Six wells were repeated for each dose. After 48 h of co-incubation, MTT solution (100 μL, 0.5 mg/mL) was added, followed by incubation for another 4 h. After discarding the supernatant, 100 μL of DMSO was added per well, and the absorbance (OD) values were measured at 490 nm using an enzyme marker. Cell viability was calculated by the formula: Cell viability (%) = As/Ab × 100% (where As is the absorbance value of the experimental group and Ab is the absorbance value of the blank group). The obtained data were processed using SPSS19 software to obtain IC50 values.

HepG-2 cells [1] = experiment: Cell cycle analysis by PI flow cytometry
Protocol: The four phases in the cell cycle, mitosis (M), gap 1 (G1), synthesis of DNA (S), and gap 2 (G2), can be analysized by a commonly used dye, propidium iodide (PI), which could intercalate into the major groove of double-stranded DNA and produce a highly fluorescent adduct that can be detected due to its broad emission around 600 nm. In this research, the drug-treated tumor cells were fixed overnight at 4 °C with 70% ice-cold ethanol and then treated with Rnase A/PI for 60 min at 37 °C and analyzed by flow cytometry.
HepG-2 cells were inoculated in 6-well plates and incubated for 24 h. Then, different concentrations of compound 8 were added to the wells and incubated for the required time. The collected cells in the experimental and control groups were digested with trypsin, centrifuged (1000 r/min, 5 min), resuspended in PBS and fixed by 70% ice ethanol (3 mL) at −20 °C for 24 h. Then, cells were washed twice with PBS and resuspended in PBS (0.9 mL), then treated with 100 µL RNase (100 µg/mL) for 30 min at 37 °C. After centrifuging the mixture for 5 min, the cells were resuspended in 50 µg/mL PBS and stained with 600 µL of PI solution (Beyotime Biotechnology, Shanghai, China) for 60 min at 4 °C to stain. Finally, the physical properties of individual cells at different mitotic stages were analyzed by flow cytometry (BD Accuri C6, BD Biosciences, Franklin Lakes, NJ, USA).

HepG-2 cells [2] = experiment: Intracellular Ca2+ level, Fluo-3 AM flow cytometry; conditions: 24 h treatment
Text: It has been clear that subtle changes in Ca^2+ concentration, such as intracellular calcium overload, can regulate and trigger apoptosis by inducing the production of mitochondrial trifunctional protein [24]. In this paper, we tried to study the influence of our prepared cyclic peptide on the intracellular calcium ion concentration. The cell-permeable fluorescent dye, Fluo-3 AM, is the most commonly used indicator to detect intracellular calcium ion concentration. […] Based on this principle, intracellular calcium ion concentrations can be detected by flow cytometry. In this paper, HepG-2 cells treated with solvent and the desired concentration of compound 8 for 24 h were collected and co-incubated with Fluo-3 AM. After loading, intracellular Ca^2+ levels were measured by flow cytometry.
Cells incubated in 6-well plates were treated in a similar way as mentioned above, and then 100 µL of Fluo-3 AM (5 µM) was added and incubated for 1 h at 37 °C away from light. After rewashing the cells, the suspended precipitate in PBS was checked by flow cytometry (excitation at 488 nm and emission at 525 nm).

MDM2 = experiment: Western blot of MDM2 level; conditions: HepG-2 cells, 48 h, increasing drug concentration
Text: (§1) The p53 tumor suppressor plays a key role in preventing tumor development. In cancers retaining wild-type p53, the function of p53 can be suppressed by a variety of factors, and the murine double minute 2 (MDM2) protein is an important endogenous cellular inhibitor of p53 [29]. Therefore, inhibiting or blocking MDM2 protein should be an efficient strategy for the development of an antitumor agent. Actually, various MDM2 inhibitors have been studied and screened in recent years, including small molecules and polypeptides. […] Considering that the isoindolinone fragment is always present in the structure of MDM2 inhibitors and plays an important role in binding to the target protein, we tried to detect the MDM2 and p53 protein levels by Western blotting to assess the inhibiting ability of cyclic peptides containing isoindolinone fragments to MDM2 oncoprotein.
(§2) HepG-2 cells (5 × 10^6 cells) in the medium were treated with different concentrations of compounds for the required time and were washed twice with ice-cold PBS. The cells were scraped into cell lysate buffer containing phenylmethanesulfonyl fluoride (PMSF) and transferred to a 1.5 mL centrifuge tube, then lysed for 20 min at 4 °C. After centrifuging (12,000 r/min) for 20 min, the supernatant was collected and measured using the BCA Protein Assay Kit (Beyotime Biotechnology Co. Ltd., Shanghai, China)). […]

p53 = experiment: Western blot of p53 level; conditions: HepG-2 cells, 48 h, increasing drug concentration
Text: as §1, §2

cytochrome C = experiment: Western blot of cytochrome C in the cytosol; conditions: HepG-2 cells, increasing peptide concentrations, vs control
Text: Moreover, as mentioned previously and in others’ reports, the apoptosis of HepG-2 induced by galaxamide might be related to a mitochondria-mediated pathway. It has been known that with the decrease in the mitochondrial membrane potential, the cytochrome C in mitochondrion is released to the cytosol and can be detected. Therefore, we have also checked the content of cytochrome C in the cytosol by Western blotting to further verify the mitochondrial apoptotic pathway.
as §2, with “China)). Protein samples were then electrophoresed on 12% SDS-polyacrylamide gels and transferred to polyvinylidene difluoride (PVDF) membranes. The membranes were then closed with 5% skim milk in Tris-buffered saline Tween 20 (TBST) (containing 50 mM Tris-HCl, 150 mM NaCl and 0.02% Tween-20) for 2 h.” for “China)).”

Question: `CC(C)C[C@@H]1NC(=O)CN2C(=O)c3ccccc3[C@@]2(O)CN(Cc2ccccc2)C(=O)[C@H](CC(C)C)NC(=O)[C@H](CC(C)C)N(C)C(=O)[C@H](CC(C)C)NC(=O)[C@H](CC(C)C)NC1=O` [Compound 8, 3-Hydroxy-isoindolinone-cyclo-Gly-Leu-N-Me-Leu-Leu-Leu-Leu] (cyclo(LL[NMeL]L[X1]L)) was tested. Which IC50 (MDA-MB-231 cells) did it give?
Answer: 41.7 ± 3.2 µM

Question: And the “4N (G2/M phase) cells” value (HepG-2 cells [1]; 5.5 μM, 48 h)?
Answer: 12.0%

Question: And the “4N (G2/M phase) cells” value (HepG-2 cells [1]; 11 μM, 12 h)?
Answer: 10.1%

Question: And the “4N (G2/M phase) cells” value (HepG-2 cells [1]; 11 μM, 24 h)?
Answer: 17.4%

Question: What about the “4N (G2/M phase) cells” value (HepG-2 cells [1]; 11 μM, 48 h) of the same compound?
Answer: 25.8%

Question: What about the “4N (G2/M phase) cells” value (HepG-2 cells [1]; 22 μM, 48 h) of the same compound?
Answer: 33.0%

Question: And the “Fluo-3 fluorescence intensity (intracellular Ca2+) relative to control group” value (HepG-2 cells [2])?
Answer: 4.83 times

Question: What about the “level of MDM2” value (MDM2) of the same compound?
Answer: decreased gradually

Question: And the p53 protein expression (p53)?
Answer: increase

Question: And the “level of cytochrome C in the cytosol” value (cytochrome C)?
Answer: increased significantly

Source: article PMC9227305, “Photoinduced Synthesis of Methylated Marine Cyclopeptide Galaxamide Analogs with Isoindolinone as Anticancer Agents” (Marine Drugs, 2022)
